Assay results: the kinase profiling compilation of Christmann-Franck et al. (2016)

Legend:
Test in all cases: KINOMEscan competition binding
Details in all cases: compound 10.0 µM
WEE2 (human) = WEE2 (human) (UniProt P0C1S8)
NLK (human) = NLK (human) (UniProt Q9UBE8)
MYO3A (human) = MYO3A (human) (UniProt Q8NEV4)
PKMYT1 (human) = PKMYT1 (human) (UniProt Q99640)
AURKC (human) = AURKC (human) (UniProt Q9UQB9)
MARK2 (human) = MARK2 (human) (UniProt Q7KZI7)
AURKA (human) = AURKA (human) (UniProt O14965)
TYRO3 (human) = TYRO3 (human) (UniProt Q06418)
ACVR2B (human) = ACVR2B (human) (UniProt Q13705)
PHKG2 (human) = PHKG2 (human) (UniProt P15735)
EPHA3 (human) = EPHA3 (human) (UniProt P29320)
PAK4 (human) = PAK4 (human) (UniProt O96013)
TXK (human) = TXK (human) (UniProt P42681)
ACVRL1 (human) = ACVRL1 (human) (UniProt P37023)
[1] = target: JAK3 JH1 catalytic (human) (UniProt P52333)
RPS6KA1 KD1 (human) = RPS6KA1 KD1 (human) (UniProt Q15418)
MAPK13 (human) = MAPK13 (human) (UniProt O15264)
CSNK1G3 (human) = CSNK1G3 (human) (UniProt Q9Y6M4)
CDK18 (human) = CDK18 (human) (UniProt Q07002)
FLT4 (human) = FLT4 (human) (UniProt P35916)
EIF2AK2 (human) = EIF2AK2 (human) (UniProt P19525)
AKT1 (human) = AKT1 (human) (UniProt P31749)
MYLK4 (human) = MYLK4 (human) (UniProt Q86YV6)
MAP3K11 (human) = MAP3K11 (human) (UniProt Q16584)
EPHB4 (human) = EPHB4 (human) (UniProt P54760)
FES (human) = FES (human) (UniProt P07332)
DYRK1B (human) = DYRK1B (human) (UniProt Q9Y463)
CDKL2 (human) = CDKL2 (human) (UniProt Q92772)
ACVR1B (human) = ACVR1B (human) (UniProt P36896)
STK3 (human) = STK3 (human) (UniProt Q13188)
PIK3CD (human) = PIK3CD (human) (UniProt O00329)
STK32C (human) = STK32C (human) (UniProt Q86UX6)
MKNK1 (human) = MKNK1 (human) (UniProt Q9BUB5)
DDR2 (human) = DDR2 (human) (UniProt Q16832)
DAPK3 (human) = DAPK3 (human) (UniProt O43293)
MAP3K10 (human) = MAP3K10 (human) (UniProt Q02779)
SYK (human) = SYK (human) (UniProt P43405)
RPS6KA5 KD1 (human) = RPS6KA5 KD1 (human) (UniProt O75582)
[2] = target: JAK1 JH2 pseudokinase (human) (UniProt P23458)
STK17A (human) = STK17A (human) (UniProt Q9UEE5)

Chain of AURKA (human) (O14965 whole entry, looked up): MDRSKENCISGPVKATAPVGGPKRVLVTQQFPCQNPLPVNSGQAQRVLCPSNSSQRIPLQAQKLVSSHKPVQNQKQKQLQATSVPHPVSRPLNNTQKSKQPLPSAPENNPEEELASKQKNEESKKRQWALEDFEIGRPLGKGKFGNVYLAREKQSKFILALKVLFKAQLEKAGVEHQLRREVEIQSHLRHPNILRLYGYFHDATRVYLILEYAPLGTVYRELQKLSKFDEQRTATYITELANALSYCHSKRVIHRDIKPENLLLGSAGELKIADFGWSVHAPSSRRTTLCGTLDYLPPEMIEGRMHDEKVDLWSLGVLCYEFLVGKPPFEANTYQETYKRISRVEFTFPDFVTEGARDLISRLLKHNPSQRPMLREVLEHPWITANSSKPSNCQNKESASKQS
Chain of TXK (human) (P42681 whole entry, looked up): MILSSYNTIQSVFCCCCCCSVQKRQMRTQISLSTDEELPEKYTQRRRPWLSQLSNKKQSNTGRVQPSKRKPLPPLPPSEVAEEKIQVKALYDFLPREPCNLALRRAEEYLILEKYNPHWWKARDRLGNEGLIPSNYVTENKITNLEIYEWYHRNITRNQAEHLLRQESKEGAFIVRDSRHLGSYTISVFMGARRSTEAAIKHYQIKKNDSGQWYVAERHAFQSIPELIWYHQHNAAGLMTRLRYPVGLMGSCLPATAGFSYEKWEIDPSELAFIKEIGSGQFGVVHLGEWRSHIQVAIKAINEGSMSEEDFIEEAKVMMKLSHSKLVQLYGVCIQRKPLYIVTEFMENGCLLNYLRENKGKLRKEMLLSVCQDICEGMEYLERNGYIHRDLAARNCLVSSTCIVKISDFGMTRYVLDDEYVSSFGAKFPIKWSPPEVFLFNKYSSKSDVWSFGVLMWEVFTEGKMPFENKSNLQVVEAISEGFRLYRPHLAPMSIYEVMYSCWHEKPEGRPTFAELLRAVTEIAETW
Chain of CSNK1G3 (human) (Q9Y6M4 whole entry, looked up): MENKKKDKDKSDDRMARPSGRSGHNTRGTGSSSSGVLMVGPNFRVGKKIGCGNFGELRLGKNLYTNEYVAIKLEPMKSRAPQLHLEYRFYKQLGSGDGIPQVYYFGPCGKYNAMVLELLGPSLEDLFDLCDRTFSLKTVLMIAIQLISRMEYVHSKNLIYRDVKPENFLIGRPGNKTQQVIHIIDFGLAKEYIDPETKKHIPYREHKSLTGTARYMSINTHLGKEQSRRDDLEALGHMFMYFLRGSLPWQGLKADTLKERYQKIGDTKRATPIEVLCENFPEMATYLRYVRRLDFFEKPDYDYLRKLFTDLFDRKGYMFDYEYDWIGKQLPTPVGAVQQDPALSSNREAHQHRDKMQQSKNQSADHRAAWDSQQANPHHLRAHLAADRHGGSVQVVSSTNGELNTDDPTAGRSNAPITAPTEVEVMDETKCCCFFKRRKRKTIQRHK
Chain of CDK18 (human) (Q07002 whole entry, looked up): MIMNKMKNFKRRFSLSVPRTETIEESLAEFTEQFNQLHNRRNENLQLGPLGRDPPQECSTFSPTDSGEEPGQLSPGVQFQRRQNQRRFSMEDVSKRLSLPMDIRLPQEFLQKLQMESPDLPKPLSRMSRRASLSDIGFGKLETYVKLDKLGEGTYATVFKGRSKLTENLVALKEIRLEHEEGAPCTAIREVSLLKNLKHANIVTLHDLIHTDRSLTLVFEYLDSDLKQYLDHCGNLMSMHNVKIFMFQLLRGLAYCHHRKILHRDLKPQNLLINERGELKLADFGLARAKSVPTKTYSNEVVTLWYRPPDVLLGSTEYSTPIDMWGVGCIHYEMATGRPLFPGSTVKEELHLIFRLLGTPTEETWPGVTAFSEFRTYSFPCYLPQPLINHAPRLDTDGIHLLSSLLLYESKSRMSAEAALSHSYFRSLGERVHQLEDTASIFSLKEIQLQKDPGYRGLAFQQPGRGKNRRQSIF
Chain of DYRK1B (human) (Q9Y463 whole entry, looked up): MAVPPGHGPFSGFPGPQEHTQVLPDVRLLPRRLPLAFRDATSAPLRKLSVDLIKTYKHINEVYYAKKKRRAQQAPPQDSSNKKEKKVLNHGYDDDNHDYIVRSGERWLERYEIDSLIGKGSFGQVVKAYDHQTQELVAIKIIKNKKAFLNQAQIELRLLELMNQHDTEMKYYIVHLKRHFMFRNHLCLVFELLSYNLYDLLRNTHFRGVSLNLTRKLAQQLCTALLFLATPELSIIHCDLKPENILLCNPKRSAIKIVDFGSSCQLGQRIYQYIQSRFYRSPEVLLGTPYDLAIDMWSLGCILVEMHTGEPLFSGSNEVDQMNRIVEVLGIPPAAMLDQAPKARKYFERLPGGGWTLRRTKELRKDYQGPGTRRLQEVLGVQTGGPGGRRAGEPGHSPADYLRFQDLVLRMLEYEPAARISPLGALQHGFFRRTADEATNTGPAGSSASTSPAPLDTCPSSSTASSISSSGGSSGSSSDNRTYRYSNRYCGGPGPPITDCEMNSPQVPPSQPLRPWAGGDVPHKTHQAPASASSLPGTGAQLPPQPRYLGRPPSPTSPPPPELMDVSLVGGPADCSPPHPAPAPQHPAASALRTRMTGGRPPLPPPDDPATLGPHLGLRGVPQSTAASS
Chain of NLK (human) (Q9UBE8 whole entry, looked up): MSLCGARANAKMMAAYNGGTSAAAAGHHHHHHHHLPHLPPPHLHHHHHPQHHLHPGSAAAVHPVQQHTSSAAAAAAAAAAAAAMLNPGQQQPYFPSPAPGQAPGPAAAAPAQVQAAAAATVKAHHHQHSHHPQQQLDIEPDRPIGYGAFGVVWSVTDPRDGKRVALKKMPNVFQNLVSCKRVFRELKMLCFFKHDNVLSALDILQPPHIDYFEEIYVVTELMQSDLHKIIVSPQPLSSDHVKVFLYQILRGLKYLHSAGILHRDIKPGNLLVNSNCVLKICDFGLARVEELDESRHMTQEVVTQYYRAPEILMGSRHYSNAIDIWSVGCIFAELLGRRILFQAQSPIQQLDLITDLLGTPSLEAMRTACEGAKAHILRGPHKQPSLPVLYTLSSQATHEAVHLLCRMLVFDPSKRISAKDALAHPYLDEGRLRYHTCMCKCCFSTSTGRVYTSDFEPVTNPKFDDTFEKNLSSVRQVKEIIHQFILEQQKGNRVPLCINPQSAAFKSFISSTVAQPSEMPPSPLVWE
Chain of FES (human) (P07332 whole entry, looked up): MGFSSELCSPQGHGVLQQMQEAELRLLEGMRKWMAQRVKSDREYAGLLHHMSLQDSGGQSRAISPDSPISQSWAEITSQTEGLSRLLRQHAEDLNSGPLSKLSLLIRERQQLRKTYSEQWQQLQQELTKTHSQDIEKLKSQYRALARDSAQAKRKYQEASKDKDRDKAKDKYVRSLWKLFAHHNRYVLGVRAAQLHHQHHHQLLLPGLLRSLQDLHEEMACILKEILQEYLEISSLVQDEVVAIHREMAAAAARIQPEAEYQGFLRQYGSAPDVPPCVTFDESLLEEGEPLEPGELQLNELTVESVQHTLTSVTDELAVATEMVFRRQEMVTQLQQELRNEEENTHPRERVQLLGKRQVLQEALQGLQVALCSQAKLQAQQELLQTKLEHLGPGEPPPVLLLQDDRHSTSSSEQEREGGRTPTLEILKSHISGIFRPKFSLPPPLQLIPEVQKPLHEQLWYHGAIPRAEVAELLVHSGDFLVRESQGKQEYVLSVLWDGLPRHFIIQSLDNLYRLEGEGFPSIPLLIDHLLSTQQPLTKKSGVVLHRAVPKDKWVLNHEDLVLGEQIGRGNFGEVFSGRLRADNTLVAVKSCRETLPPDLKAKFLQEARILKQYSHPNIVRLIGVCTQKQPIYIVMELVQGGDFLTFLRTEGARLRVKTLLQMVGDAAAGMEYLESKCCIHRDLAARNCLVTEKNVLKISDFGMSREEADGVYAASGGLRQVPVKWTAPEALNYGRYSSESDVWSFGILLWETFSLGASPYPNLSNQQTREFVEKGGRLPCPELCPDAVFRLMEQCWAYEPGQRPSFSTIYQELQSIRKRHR
Chain of RPS6KA1 KD1 (human) (Q15418 whole entry, looked up): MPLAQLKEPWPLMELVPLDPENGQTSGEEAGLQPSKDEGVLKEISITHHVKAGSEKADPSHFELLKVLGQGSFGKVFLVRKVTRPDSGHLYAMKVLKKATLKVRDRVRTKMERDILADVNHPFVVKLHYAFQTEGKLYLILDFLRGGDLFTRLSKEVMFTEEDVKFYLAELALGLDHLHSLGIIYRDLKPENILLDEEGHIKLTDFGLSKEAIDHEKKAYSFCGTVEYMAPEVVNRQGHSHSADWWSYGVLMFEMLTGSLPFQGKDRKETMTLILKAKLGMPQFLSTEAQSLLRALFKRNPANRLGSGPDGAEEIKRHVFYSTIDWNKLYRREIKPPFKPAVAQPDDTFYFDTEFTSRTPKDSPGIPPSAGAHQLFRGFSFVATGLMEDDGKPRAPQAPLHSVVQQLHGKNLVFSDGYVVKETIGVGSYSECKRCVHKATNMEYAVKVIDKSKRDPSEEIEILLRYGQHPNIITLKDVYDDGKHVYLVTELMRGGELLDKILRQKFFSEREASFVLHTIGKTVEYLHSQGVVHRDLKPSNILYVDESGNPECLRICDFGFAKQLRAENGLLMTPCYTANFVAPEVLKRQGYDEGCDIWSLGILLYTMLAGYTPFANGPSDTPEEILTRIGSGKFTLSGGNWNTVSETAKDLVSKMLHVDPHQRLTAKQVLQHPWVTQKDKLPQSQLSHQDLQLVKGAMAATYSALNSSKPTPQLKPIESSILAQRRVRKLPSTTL
Chain of MAPK13 (human) (O15264 whole entry, looked up): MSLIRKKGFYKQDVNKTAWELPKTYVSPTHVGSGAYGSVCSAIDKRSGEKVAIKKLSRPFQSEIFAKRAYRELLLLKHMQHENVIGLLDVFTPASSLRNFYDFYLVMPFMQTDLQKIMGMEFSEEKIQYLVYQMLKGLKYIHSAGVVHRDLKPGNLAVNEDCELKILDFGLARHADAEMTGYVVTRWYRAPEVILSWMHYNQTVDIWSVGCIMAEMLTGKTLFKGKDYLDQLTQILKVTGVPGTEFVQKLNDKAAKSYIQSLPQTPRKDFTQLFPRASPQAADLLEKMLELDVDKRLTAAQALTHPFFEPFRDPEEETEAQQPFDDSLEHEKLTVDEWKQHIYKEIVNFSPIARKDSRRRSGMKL

Compound	kinase still bound, per cent of control (WEE2 (human)) [%]	kinase still bound, per cent of control (NLK (human)) [%]	kinase still bound, per cent of control (MYO3A (human)) [%]	kinase still bound, per cent of control (PKMYT1 (human)) [%]	kinase still bound, per cent of control (AURKC (human)) [%]	kinase still bound, per cent of control (MARK2 (human)) [%]	kinase still bound, per cent of control (AURKA (human)) [%]	kinase still bound, per cent of control (TYRO3 (human)) [%]	kinase still bound, per cent of control (ACVR2B (human)) [%]	kinase still bound, per cent of control (PHKG2 (human)) [%]	kinase still bound, per cent of control (EPHA3 (human)) [%]	kinase still bound, per cent of control (PAK4 (human)) [%]	kinase still bound, per cent of control (TXK (human)) [%]	kinase still bound, per cent of control (ACVRL1 (human)) [%]	kinase still bound, per cent of control [1] [%]	kinase still bound, per cent of control (RPS6KA1 KD1 (human)) [%]	kinase still bound, per cent of control (MAPK13 (human)) [%]	kinase still bound, per cent of control (CSNK1G3 (human)) [%]	kinase still bound, per cent of control (CDK18 (human)) [%]	kinase still bound, per cent of control (FLT4 (human)) [%]	further results
CN(C)C/C=C/C(=O)Nc1cccc(Nc2ncc3c(n2)N(C)c2ccccc2C(=O)N3C)c1	97	36	100	100	9.2	21	0.65	100	9.4	25	43	61	11	100	1.2	67	61	39	100	100	kinase still bound, per cent of control (EIF2AK2 (human)): 75%; kinase still bound, per cent of control (AKT1 (human)): 100%; kinase still bound, per cent of control (MYLK4 (human)): 86%; kinase still bound, per cent of control (MAP3K11 (human)): 100%; kinase still bound, per cent of control (EPHB4 (human)): 83%; kinase still bound, per cent of control (FES (human)): 67%; kinase still bound, per cent of control (DYRK1B (human)): 100%; kinase still bound, per cent of control (CDKL2 (human)): 92%; kinase still bound, per cent of control (ACVR1B (human)): 53%; kinase still bound, per cent of control (STK3 (human)): 0%; kinase still bound, per cent of control (PIK3CD (human)): 2.2%; kinase still bound, per cent of control (STK32C (human)): 93%; kinase still bound, per cent of control (MKNK1 (human)): 38%; kinase still bound, per cent of control (DDR2 (human)): 11%; kinase still bound, per cent of control (DAPK3 (human)): 45%; kinase still bound, per cent of control (MAP3K10 (human)): 89%; kinase still bound, per cent of control (SYK (human)): 50%; kinase still bound, per cent of control (RPS6KA5 KD1 (human)): 100%; kinase still bound, per cent of control [2]: 0.25%; kinase still bound, per cent of control (STK17A (human)): 97%
COc1cc(C(=O)NC2CCN(C)CC2)ccc1Nc1ncc2c(n1)N(C1CCCC1)C(C)CC(=O)N2C (stereo not given)	100	100	100	100	100	100	100	100	100	100	100	100	100	100	100	100	100	100	100	100	kinase still bound, per cent of control (EIF2AK2 (human)): 100%; kinase still bound, per cent of control (AKT1 (human)): 100%; kinase still bound, per cent of control (MYLK4 (human)): 100%; kinase still bound, per cent of control (MAP3K11 (human)): 100%; kinase still bound, per cent of control (EPHB4 (human)): 100%; kinase still bound, per cent of control (FES (human)): 100%; kinase still bound, per cent of control (DYRK1B (human)): 100%; kinase still bound, per cent of control (CDKL2 (human)): 100%; kinase still bound, per cent of control (ACVR1B (human)): 100%; kinase still bound, per cent of control (STK3 (human)): 100%; kinase still bound, per cent of control (PIK3CD (human)): 100%; kinase still bound, per cent of control (STK32C (human)): 100%; kinase still bound, per cent of control (MKNK1 (human)): 100%; kinase still bound, per cent of control (DDR2 (human)): 100%; kinase still bound, per cent of control (DAPK3 (human)): 17%; kinase still bound, per cent of control (MAP3K10 (human)): 100%; kinase still bound, per cent of control (SYK (human)): 100%; kinase still bound, per cent of control (RPS6KA5 KD1 (human)): 100%; kinase still bound, per cent of control [2]: 22%; kinase still bound, per cent of control (STK17A (human)): 100%
C[C@@H](Oc1cc(-n2cnc3ccc(CN4CCN(C)CC4)cc32)sc1C(N)=O)c1ccccc1C(F)(F)F	83	100	78	100	100	53	100	100	100	43	100	37	71	100	10	29	100	100	100	63	kinase still bound, per cent of control (EIF2AK2 (human)): 76%; kinase still bound, per cent of control (AKT1 (human)): 100%; kinase still bound, per cent of control (MYLK4 (human)): 78%; kinase still bound, per cent of control (MAP3K11 (human)): 75%; kinase still bound, per cent of control (EPHB4 (human)): 100%; kinase still bound, per cent of control (FES (human)): 88%; kinase still bound, per cent of control (DYRK1B (human)): 89%; kinase still bound, per cent of control (CDKL2 (human)): 90%; kinase still bound, per cent of control (ACVR1B (human)): 97%; kinase still bound, per cent of control (STK3 (human)): 74%; kinase still bound, per cent of control (PIK3CD (human)): 14%; kinase still bound, per cent of control (STK32C (human)): 100%; kinase still bound, per cent of control (MKNK1 (human)): 100%; kinase still bound, per cent of control (DDR2 (human)): 77%; kinase still bound, per cent of control (DAPK3 (human)): 15%; kinase still bound, per cent of control (MAP3K10 (human)): 92%; kinase still bound, per cent of control (SYK (human)): 100%; kinase still bound, per cent of control (RPS6KA5 KD1 (human)): 100%; kinase still bound, per cent of control [2]: 92%; kinase still bound, per cent of control (STK17A (human)): 100%
